Reference: publication PMC5392334, “Discovery and characterization of a novel irreversible EGFR mutants selective and potent kinase inhibitor CHMFL-EGFR-26 with a distinct binding mode” (Oncotarget, 2017)
Where two headings read alike, the source gives them in different places.

Legend:
MLK3 = molecular target: T1, MLK3 (Homo sapiens, UniProt Q16584); assay: KinomeScan; type: binding; details: read-out: % control
T1 construct: purchased DiscoveRx KINOMEscan

FER = molecular target: T2, FER (Homo sapiens, UniProt P16591); assay: KinomeScan; type: binding; details: read-out: % control
T2 construct: purchased DiscoveRx KINOMEscan

YES = molecular target: T3, YES (Homo sapiens, UniProt P07947); assay: KinomeScan; type: binding; details: read-out: % control
T3 construct: purchased DiscoveRx KINOMEscan

ULK2 = molecular target: T4, ULK2 (Homo sapiens, UniProt Q8IYT8); assay: KinomeScan; type: binding; details: read-out: % control
T4 construct: purchased DiscoveRx KINOMEscan

[1] = tested on: p70S6K and eIF4E phosphorylations in H3255 cells; assay: Signaling pathway examination (immunoblotting); type: cell-based, human; details: 30 nM, 4 hours
From the text: (§1) We next examined the effects of CHMFL-EGFR-26 on EGFR mediated signaling pathways in NSCLC cell lines with different EGFR mutants. […] As expected, in the EGFR wt expressing NCSCL cell lines A549 and H1355, only autophosphorylation of EGFR was affected and none of the downstream mediators was inhibited.
(§2) Cells were then collected and lysed. Phospho-EGF Receptor, Phospho-EGF Receptor (Tyr1068), Stat3, Phospho-Stat3 (Tyr705), AKT, Phospho-AKT (Ser473), Phospho-AKT (Thr308), p44/42 MAPK (Erk1/2), Phospho-p44/42 MAPK (Erk1/2) (Thr202/ Tyr204), p70 S6 Kinase, Phospho-p70 S6 Kinase (Thr389), eIF4E, Phospho-eIF4E (Ser209), 4E-BP1, Phospho-4E-BP1 (Thr37/46) antibody (Cell Signaling Technology) were used for immunoblotting.

[2] = tested on: autophosphorylation of EGFR Y1068 in H1975 cell line; assay: Signaling pathway examination (immunoblotting); type: cell-based, human; details: 10 nM, 4 hours
From the text: as §1, §2

BaF3-FL-EGFR-L858R-T790M = assay: Anti-proliferation, BaF3 isogenic cell lines (CellTiter-Glo); type: cell-based; details: Mus musculus, 72 hours, triplet testing
SIK2 = molecular target: T5, SIK2 (Homo sapiens, UniProt Q9H0K1); assay: KinomeScan; type: binding; details: read-out: % control
T5 construct: purchased DiscoveRx KINOMEscan

MLCK = molecular target: T6, MLCK (Homo sapiens, UniProt Q32MK0); assay: KinomeScan; type: binding; details: read-out: % control
T6 construct: purchased DiscoveRx KINOMEscan

[3] = Pharmacokinetic properties in rats; type: in vivo; details: for MRT last: read-out: MRT(0-t)
Experimental: To further investigate the effect of CHMFL-EGFR-26 in vivo, we first examined its pharmacokinetic properties in rats (Supplementary Table 5). The half-life is 0.8 hour by oral dosing which is short but considering the irreversible binding mode, this short half-life was preferred. […]

TEC = molecular target: T7, TEC (Homo sapiens, UniProt P42680); assay: KinomeScan; type: binding; details: read-out: % control
T7 construct: purchased DiscoveRx KINOMEscan

ERK5 = molecular target: T8, ERK5 (Homo sapiens, UniProt Q13164); assay: KinomeScan; type: binding; details: read-out: % control
T8 construct: purchased DiscoveRx KINOMEscan

JNK2 = molecular target: T9, JNK2 (Homo sapiens, UniProt P45984); assay: KinomeScan; type: binding; details: read-out: % control
T9 construct: purchased DiscoveRx KINOMEscan

NEK9 = molecular target: T10, NEK9 (Homo sapiens, UniProt Q8TD19); assay: KinomeScan; type: binding; details: read-out: % control
T10 construct: purchased DiscoveRx KINOMEscan

MYLK4 = molecular target: T11, MYLK4 (Homo sapiens, UniProt Q86YV6); assay: KinomeScan; type: binding; details: read-out: % control
T11 construct: purchased DiscoveRx KINOMEscan

[4] = molecular target: T12, RPS6KA5(Kin.Dom.1-N-terminal) (Homo sapiens, UniProt O75582); assay: KinomeScan; type: binding; details: read-out: % control
T12 construct: RPS6KA5(Kin.Dom.1-N-terminal); purchased DiscoveRx KINOMEscan
T12 sequence (O75582 1-387 limits assumed): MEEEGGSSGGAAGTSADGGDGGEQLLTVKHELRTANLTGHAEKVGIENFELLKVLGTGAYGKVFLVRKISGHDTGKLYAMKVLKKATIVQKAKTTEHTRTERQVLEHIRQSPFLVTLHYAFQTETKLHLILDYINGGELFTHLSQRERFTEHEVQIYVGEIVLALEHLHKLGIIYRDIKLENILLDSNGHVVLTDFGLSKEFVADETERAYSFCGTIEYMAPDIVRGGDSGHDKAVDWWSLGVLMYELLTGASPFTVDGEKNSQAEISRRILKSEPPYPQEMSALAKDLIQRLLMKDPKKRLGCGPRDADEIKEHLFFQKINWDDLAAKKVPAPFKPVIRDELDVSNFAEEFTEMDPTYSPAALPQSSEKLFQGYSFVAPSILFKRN

S6K1 = molecular target: T13, S6K1 (Homo sapiens, UniProt P23443); assay: KinomeScan; type: binding; details: read-out: % control
T13 construct: purchased DiscoveRx KINOMEscan

PIM2 = molecular target: T14, PIM2 (Homo sapiens, UniProt Q9P1W9); assay: KinomeScan; type: binding; details: read-out: % control
T14 construct: purchased DiscoveRx KINOMEscan
T14 sequence (Q9P1W9 whole entry): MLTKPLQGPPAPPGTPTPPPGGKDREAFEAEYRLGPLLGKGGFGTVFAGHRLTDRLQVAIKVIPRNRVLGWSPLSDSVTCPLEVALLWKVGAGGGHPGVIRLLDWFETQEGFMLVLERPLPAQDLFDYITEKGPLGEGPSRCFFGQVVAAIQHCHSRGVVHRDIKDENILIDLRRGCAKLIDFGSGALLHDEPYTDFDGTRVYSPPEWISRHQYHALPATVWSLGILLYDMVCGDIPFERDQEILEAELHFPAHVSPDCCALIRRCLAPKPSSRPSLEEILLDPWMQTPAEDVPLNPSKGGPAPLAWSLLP

MET(M1250T) = molecular target: T15, MET(M1250T) (Homo sapiens, UniProt P08581, M1250T); assay: KinomeScan; type: binding; details: read-out: % control
T15 construct: purchased DiscoveRx KINOMEscan
T15 sequence (P08581 25-1390 M1250T): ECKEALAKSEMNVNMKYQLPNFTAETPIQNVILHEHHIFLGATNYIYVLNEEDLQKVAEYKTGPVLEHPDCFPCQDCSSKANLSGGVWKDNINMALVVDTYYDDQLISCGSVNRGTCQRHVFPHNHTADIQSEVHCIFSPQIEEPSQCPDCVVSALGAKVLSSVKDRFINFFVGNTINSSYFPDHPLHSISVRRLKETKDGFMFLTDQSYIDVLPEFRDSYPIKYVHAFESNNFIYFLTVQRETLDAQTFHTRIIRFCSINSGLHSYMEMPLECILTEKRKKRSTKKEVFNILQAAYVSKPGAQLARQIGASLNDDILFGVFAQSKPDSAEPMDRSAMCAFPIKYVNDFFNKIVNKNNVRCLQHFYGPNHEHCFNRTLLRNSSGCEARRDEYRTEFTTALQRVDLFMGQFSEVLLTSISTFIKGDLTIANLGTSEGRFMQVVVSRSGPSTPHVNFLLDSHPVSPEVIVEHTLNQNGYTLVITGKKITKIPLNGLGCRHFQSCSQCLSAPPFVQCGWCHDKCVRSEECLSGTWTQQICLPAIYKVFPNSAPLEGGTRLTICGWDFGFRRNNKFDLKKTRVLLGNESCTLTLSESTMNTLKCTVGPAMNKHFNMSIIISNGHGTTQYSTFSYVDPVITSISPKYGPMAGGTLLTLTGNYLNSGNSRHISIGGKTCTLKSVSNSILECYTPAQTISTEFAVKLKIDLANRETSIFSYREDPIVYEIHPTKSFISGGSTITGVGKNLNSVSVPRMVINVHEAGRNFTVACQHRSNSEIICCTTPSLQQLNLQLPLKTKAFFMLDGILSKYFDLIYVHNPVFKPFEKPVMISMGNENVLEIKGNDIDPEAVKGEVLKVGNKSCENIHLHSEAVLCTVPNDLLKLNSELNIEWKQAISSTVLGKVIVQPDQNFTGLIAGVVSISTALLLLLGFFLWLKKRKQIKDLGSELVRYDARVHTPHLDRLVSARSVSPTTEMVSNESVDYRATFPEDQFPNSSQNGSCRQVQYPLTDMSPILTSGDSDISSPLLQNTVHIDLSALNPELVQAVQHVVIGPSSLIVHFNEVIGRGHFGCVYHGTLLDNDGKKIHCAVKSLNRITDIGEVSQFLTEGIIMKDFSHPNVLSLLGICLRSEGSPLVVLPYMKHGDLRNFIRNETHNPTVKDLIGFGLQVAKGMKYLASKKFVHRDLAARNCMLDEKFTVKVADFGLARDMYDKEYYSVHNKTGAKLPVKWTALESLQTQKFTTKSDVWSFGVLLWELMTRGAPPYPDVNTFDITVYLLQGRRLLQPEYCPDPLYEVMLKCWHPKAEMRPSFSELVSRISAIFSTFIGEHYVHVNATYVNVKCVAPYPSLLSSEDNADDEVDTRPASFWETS

MARK4 = molecular target: T16, MARK4 (Homo sapiens, UniProt Q96L34); assay: KinomeScan; type: binding; details: read-out: % control
T16 construct: purchased DiscoveRx KINOMEscan

BMPR1B = molecular target: T17, BMPR1B (Homo sapiens, UniProt O00238); assay: KinomeScan; type: binding; details: read-out: % control
T17 construct: purchased DiscoveRx KINOMEscan
T17 sequence (O00238 14-502): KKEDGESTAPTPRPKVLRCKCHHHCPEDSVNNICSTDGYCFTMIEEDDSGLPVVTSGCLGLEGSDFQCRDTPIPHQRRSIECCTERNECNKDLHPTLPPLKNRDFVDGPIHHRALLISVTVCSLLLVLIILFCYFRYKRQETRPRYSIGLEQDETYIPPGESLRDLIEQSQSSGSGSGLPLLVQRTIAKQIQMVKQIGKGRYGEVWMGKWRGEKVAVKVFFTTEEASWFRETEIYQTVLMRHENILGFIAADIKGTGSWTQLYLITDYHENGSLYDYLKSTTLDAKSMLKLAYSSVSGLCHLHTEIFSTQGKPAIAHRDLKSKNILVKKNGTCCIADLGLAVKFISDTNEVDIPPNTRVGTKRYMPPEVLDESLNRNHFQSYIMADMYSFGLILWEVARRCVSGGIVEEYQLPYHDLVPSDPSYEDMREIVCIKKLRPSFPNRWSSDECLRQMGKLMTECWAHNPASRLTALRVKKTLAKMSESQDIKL

EPHA6 = molecular target: T18, EPHA6 (Homo sapiens, UniProt Q9UF33); assay: KinomeScan; type: binding; details: read-out: % control
T18 construct: purchased DiscoveRx KINOMEscan

AURKB = molecular target: T19, AURKB (Homo sapiens, UniProt Q96GD4); assay: KinomeScan; type: binding; details: read-out: % control
T19 construct: purchased DiscoveRx KINOMEscan

PKMYT1 = molecular target: T20, PKMYT1 (Homo sapiens, UniProt Q99640); assay: KinomeScan; type: binding; details: read-out: % control
T20 construct: purchased DiscoveRx KINOMEscan

TAOK1 = molecular target: T21, TAOK1 (Homo sapiens, UniProt Q7L7X3); assay: KinomeScan; type: binding; details: read-out: % control
T21 construct: purchased DiscoveRx KINOMEscan

FYN = molecular target: T22, FYN (Homo sapiens, UniProt P06241); assay: KinomeScan; type: binding; details: read-out: % control
T22 construct: purchased DiscoveRx KINOMEscan

FLT3(D835H) = molecular target: T23, FLT3(D835H) (Homo sapiens, UniProt P36888, D835H); assay: KinomeScan; type: binding; details: read-out: % control
T23 construct: purchased DiscoveRx KINOMEscan

ICK = molecular target: T24, ICK (Homo sapiens, UniProt Q9UPZ9); assay: KinomeScan; type: binding; details: read-out: % control
T24 construct: purchased DiscoveRx KINOMEscan

DCAMKL2 = molecular target: T25, DCAMKL2 (Homo sapiens, UniProt Q8N568); assay: KinomeScan; type: binding; details: read-out: % control
T25 construct: purchased DiscoveRx KINOMEscan
T25 sequence (Q8N568 whole entry): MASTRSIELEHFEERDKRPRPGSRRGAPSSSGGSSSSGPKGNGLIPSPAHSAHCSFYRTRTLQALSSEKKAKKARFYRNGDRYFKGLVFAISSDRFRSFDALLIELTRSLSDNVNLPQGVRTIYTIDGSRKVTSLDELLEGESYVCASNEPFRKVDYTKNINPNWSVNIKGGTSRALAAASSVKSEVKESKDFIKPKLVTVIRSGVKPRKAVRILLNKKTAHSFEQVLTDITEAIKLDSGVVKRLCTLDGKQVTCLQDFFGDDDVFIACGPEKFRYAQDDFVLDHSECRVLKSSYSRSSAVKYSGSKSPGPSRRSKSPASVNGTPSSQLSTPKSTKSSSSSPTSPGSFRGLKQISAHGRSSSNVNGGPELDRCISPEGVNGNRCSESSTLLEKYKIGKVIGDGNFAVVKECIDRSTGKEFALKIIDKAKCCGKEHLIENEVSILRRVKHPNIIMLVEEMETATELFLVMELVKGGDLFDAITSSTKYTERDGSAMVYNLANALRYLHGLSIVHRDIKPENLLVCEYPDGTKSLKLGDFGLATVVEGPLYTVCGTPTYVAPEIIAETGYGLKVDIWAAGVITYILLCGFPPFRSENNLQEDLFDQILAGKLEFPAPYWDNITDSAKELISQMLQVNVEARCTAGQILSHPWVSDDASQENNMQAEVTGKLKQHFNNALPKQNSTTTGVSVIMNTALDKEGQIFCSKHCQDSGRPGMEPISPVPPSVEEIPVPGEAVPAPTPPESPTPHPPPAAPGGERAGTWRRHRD

MAK = molecular target: T26, MAK (Homo sapiens, UniProt P20794); assay: KinomeScan; type: binding; details: read-out: % control
T26 construct: purchased DiscoveRx KINOMEscan

ASK2 = molecular target: T27, ASK2 (Homo sapiens, UniProt O95382); assay: KinomeScan; type: binding; details: read-out: % control
T27 construct: purchased DiscoveRx KINOMEscan

PRKD2 = molecular target: T28, PRKD2 (Homo sapiens, UniProt Q9BZL6); assay: KinomeScan; type: binding; details: read-out: % control
T28 construct: purchased DiscoveRx KINOMEscan
T28 sequence (Q9BZL6 whole entry): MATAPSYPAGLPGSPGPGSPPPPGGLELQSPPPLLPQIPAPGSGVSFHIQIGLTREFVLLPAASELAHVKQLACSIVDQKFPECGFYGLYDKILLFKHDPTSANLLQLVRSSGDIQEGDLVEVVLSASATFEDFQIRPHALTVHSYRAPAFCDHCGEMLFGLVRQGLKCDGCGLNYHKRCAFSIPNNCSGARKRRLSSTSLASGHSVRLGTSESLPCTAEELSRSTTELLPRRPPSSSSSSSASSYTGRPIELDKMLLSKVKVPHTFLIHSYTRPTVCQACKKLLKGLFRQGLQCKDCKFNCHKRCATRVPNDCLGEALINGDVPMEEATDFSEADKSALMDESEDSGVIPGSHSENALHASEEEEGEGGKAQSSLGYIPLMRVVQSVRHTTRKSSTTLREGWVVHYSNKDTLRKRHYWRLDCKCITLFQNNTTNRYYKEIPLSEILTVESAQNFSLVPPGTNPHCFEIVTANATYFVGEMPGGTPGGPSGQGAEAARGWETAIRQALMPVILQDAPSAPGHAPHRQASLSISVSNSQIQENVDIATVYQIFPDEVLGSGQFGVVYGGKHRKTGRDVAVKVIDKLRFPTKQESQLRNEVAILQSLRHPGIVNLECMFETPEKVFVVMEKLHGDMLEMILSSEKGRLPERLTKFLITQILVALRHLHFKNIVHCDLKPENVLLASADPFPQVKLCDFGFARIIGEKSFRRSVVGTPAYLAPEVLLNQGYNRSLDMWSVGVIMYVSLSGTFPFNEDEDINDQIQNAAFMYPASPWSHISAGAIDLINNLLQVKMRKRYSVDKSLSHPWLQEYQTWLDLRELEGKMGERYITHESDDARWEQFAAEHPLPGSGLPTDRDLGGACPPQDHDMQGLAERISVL

[5] = rat, in vivo, po, P.O. (10mg/kg)

T1 sequence (Q16584 whole entry): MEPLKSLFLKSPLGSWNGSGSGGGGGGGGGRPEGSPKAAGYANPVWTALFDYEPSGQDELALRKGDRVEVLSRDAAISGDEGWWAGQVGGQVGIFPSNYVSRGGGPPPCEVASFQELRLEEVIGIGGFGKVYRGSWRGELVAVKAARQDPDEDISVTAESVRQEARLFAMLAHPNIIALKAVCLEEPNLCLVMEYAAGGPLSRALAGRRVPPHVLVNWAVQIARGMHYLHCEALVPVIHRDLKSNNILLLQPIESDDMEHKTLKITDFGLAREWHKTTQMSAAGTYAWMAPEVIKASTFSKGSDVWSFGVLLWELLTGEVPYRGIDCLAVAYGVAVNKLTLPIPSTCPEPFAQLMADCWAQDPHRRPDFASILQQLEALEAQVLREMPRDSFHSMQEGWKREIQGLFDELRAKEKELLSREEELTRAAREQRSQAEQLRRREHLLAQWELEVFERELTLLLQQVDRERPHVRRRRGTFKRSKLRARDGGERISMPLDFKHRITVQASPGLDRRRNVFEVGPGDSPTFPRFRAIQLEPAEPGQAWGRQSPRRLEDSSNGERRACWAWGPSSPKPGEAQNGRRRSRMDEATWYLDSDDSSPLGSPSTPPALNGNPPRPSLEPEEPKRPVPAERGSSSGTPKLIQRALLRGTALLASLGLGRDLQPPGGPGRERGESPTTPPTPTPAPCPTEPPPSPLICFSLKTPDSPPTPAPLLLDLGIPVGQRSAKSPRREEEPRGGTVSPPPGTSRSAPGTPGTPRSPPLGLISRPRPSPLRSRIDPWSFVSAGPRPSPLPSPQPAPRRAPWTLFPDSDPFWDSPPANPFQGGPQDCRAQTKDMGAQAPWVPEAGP

**Q.** Which remaining binding at 1 µM (MLK3) does the source give for C=CC(=O)N1CCC[C@@H](n2nc(-c3ccc(OCc4cccc(C)n4)c(Cl)c3)c3c(N)ncnc32)C1 [CHMFL-EGFR-26] here?
**A.** 100%

**Q.** And the remaining binding at 1 µM (FER)?
**A.** 56%

**Q.** And the remaining binding at 1 µM (YES)?
**A.** 65%

**Q.** What about the remaining binding at 1 µM (ULK2) of the same compound?
**A.** 97%

**Q.** What about the “mTOR-p70S6K and eIF4E phosphorylations” value [1] of the same compound?
**A.** completely blocked

**Q.** And the “autophosphorylation of EGFR Y1068” value [2]?
**A.** almost completely suppress

**Q.** And the GI50 (BaF3-FL-EGFR-L858R-T790M)?
**A.** 6 nM

**Q.** What about the remaining binding at 1 µM (SIK2) of the same compound?
**A.** 93%

**Q.** What about the remaining binding at 1 µM (MLCK) of the same compound?
**A.** 100%

**Q.** What about the CLz ([3]; P.O. (10mg/kg)) of the same compound?
**A.** 42.2 ± 7.5 mL/min/kg

**Q.** What about the Vz ([3]; P.O. (10mg/kg)) of the same compound?
**A.** 2.62 ± 0.14 L/kg

**Q.** What about the T1/2 ([3]; P.O. (10mg/kg), 10 mg/kg) of the same compound?
**A.** 48 min

**Q.** And the half-life ([3]; rat, in vivo, iv, 1 mg/kg, I.V (1mg/kg))?
**A.** 18.6 ± 4.92 min

**Q.** What about the AUC(0-inf) ([3]; rat, in vivo, iv, I.V (1mg/kg)) of the same compound?
**A.** 1190 ± 143 ng·h/mL

**Q.** What about the AUC(0-t) ([3]; rat, in vivo, iv, I.V (1mg/kg)) of the same compound?
**A.** 1190 ± 142 ng·h/mL

**Q.** What about the Cmax ([3]; rat, in vivo, iv, I.V (1mg/kg)) of the same compound?
**A.** 10600 ± 1650 ng/mL

**Q.** And the Tmax ([3]; rat, in vivo, iv, I.V (1mg/kg))?
**A.** 1.02 min

**Q.** And the clearance ([3]; rat, in vivo, iv, I.V (1mg/kg), read-out: CLz (converted))?
**A.** 14.2 mL/min/kg

**Q.** What about the MRT last ([3]; rat, in vivo, iv, I.V (1mg/kg)) of the same compound?
**A.** 10.8 ± 2.1 min

**Q.** And the Vd ([3]; rat, in vivo, iv, I.V (1mg/kg), read-out: Vz)?
**A.** 0.38 ± 0.13 L/kg

**Q.** And the half-life ([3]; rat, in vivo, po, 10 mg/kg, P.O. (10mg/kg))?
**A.** 44.4 ± 9 min

**Q.** And the AUC(0-inf) [3, 5]?
**A.** 4040 ± 717 ng·h/mL

**Q.** And the AUC(0-t) [3, 5]?
**A.** 4040 ± 716 ng·h/mL

**Q.** And the Cmax [3, 5]?
**A.** 5210 ± 859 ng/mL

**Q.** And the Tmax [3, 5]?
**A.** 19.8 ± 8.4 min

**Q.** What about the bioavailability ([3]; rat, in vivo, po, P.O. (10mg/kg), read-out: F% (bioavailability)) of the same compound?
**A.** 33.8%

**Q.** And the MRT last [3, 5]?
**A.** 43.2 ± 4.14 min

**Q.** What about the remaining binding at 1 µM (TEC) of the same compound?
**A.** 13%

**Q.** What about the remaining binding at 1 µM (ERK5) of the same compound?
**A.** 100%

**Q.** And the remaining binding at 1 µM (JNK2)?
**A.** 59%

**Q.** And the remaining binding at 1 µM (NEK9)?
**A.** 94%

**Q.** What about the remaining binding at 1 µM (MYLK4) of the same compound?
**A.** 100%

**Q.** And the remaining binding at 1 µM [4]?
**A.** 100%

**Q.** And the remaining binding at 1 µM (S6K1)?
**A.** 100%

**Q.** And the remaining binding at 1 µM (PIM2)?
**A.** 100%

**Q.** What about the remaining binding at 1 µM (MET(M1250T)) of the same compound?
**A.** 90%

**Q.** And the remaining binding at 1 µM (MARK4)?
**A.** 100%

**Q.** What about the remaining binding at 1 µM (BMPR1B) of the same compound?
**A.** 97%

**Q.** And the remaining binding at 1 µM (EPHA6)?
**A.** 97%

**Q.** What about the remaining binding at 1 µM (AURKB) of the same compound?
**A.** 77%

**Q.** And the remaining binding at 1 µM (PKMYT1)?
**A.** 92%

**Q.** And the remaining binding at 1 µM (TAOK1)?
**A.** 100%

**Q.** And the remaining binding at 1 µM (FYN)?
**A.** 90%

**Q.** What about the remaining binding at 1 µM (FLT3(D835H)) of the same compound?
**A.** 100%

**Q.** And the remaining binding at 1 µM (ICK)?
**A.** 90%

**Q.** What about the remaining binding at 1 µM (DCAMKL2) of the same compound?
**A.** 95%

**Q.** And the remaining binding at 1 µM (MAK)?
**A.** 100%

**Q.** And the remaining binding at 1 µM (ASK2)?
**A.** 68%

**Q.** And the remaining binding at 1 µM (PRKD2)?
**A.** 81%
